Results on 32 substances are retold here after patent US10130693B2, “Peptides, combination of peptides and scaffolds for use in immunotherapeutic treatment of various cancers” (Immatics Biotechnologies GmbH, priority 2015, dated 2018).

For one experiment, the system named is HLA-A*24. The experiment is described as follows: MHC binding assay, UV-ligand exchange with beta2m ELISA (exchange yield), HLA-A*24. Also on record: species or system human. To be noted: binding to HLA-A*24, UV-ligand exchange. The procedure, abridged:
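Peptide–MHC complexes formed by UV-ligand exchange: a UV-cleavable peptide is replaced by the test peptide, and only binders keep the complex stable. Exchange yield read by streptavidin-capture ELISA on reactions diluted 100-fold, detected with HRP anti-β2m (2 ug/ml, 1 h, 37° C) and TMB at 450 nm.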
On the technique in general: ELISA stands for enzyme-linked immunosorbent assay.

The subject of another experiment is CD8+ T cells. The experiment is described as follows: In vitro immunogenicity: T-cell priming with aAPCs loaded with HLA-A*24 peptide/MHC and anti-CD28, multimer staining. It counts as cell-based, human. The conditions noted are these: HLA-A*24 peptides; for in vitro immunogenicity, wells: positive wells after priming. As to the method: CD8+ T cells were primed using artificial APCs coated with anti-CD28 mAb and HLA-A*24 in complex with SEQ ID NO: 99 peptide (FIG. 5A, left panel), SEQ ID NO: 119 peptide (FIG. 5B, left panel), SEQ ID NO: 142 peptide (FIG. 5C, left panel) and SEQ ID NO: 174 peptide FIG. 5 (D, left panel), respectively. After three cycles of stimulation, the detection of peptide-reactive cells was performed by 2D multimer staining with A*24/SEQ ID NO: 99 (FIG. 5A), A*24/SEQ ID NO: 119 (FIG. 5B), A*24/SEQ ID NO: 142 (FIG. 5C) or A*24/SEQ ID NO: 174 (FIG. 5D). Right panels (FIGS. 5A,5B,5C and 5D) show control staining of cells stimulated with irrelevant A*24/peptide complexes. Viable singlet cells were gated for CD8+ lymphocytes. Boolean gates helped excluding false-positive events detected with multimers specific for different peptides. Frequencies of specific multimer+ cells among CD8+ lymphocytes are indicated.
Generation of pMHC/anti-CD28 coated beads, T-cell stimulations and readout was performed in a highly defined in vitro system using four different pMHC molecules per stimulation condition and 8 different pMHC molecules per readout condition.
The purified co-stimulatory mouse IgG2a anti human CD28 Ab 9.3 (Jung et al., 1987) was chemically biotinylated using Sulfo-N-hydroxysuccinimidobiotin as recommended by the manufacturer (Perbio, Bonn, Germany). Beads used were 5.6 μm diameter streptavidin coated polystyrene particles (Bangs Laboratories, Illinois, USA).
800.000 beads/200 μl were coated in 96-well plates in the presence of 4×12.5 ng different biotin-pMHC, washed and 600 ng biotin anti-CD28 were added subsequently in a volume of 200 μl. Stimulations were initiated in 96-well plates by co-incubating 1×10^6 CD8+ T cells with 2×10^5 washed coated beads in 200 μl TCM supplemented with 5 ng/ml IL-12 (PromoCell) for 3 days at 37° C. Half of the medium was then exchanged by fresh TCM supplemented with 80 U/ml IL-2 and incubating was continued for 4 days at 37° C. This stimulation cycle was performed for a total of three times. For the pMHC multimer readout using 8 different pMHC molecules per condition, a two-dimensional combinatorial coding approach was used as previously described (Andersen et al., 2012) with minor modifications encompassing coupling to 5 different fluorochromes. Finally, multimeric analyses were performed by staining the cells with Live/dead near IR dye (Invitrogen, Karlsruhe, Germany), CD8-FITC antibody clone SK1 (BD, Heidelberg, Germany) and fluorescent pMHC multimers. For analysis, a BD LSRII SORP cytometer equipped with appropriate lasers and filters was used. Peptide specific cells were calculated as percentage of total CD8+ cells. Evaluation of multimeric analysis was done using the FlowJo software (Tree Star, Oregon, USA). In vitro priming of specific multimer+CD8+ lymphocytes was detected by comparing to negative control stimulations.

The next experiment has as its target HLA-A*02:01 (Homo sapiens, UniProt P04439, D140Y/D185E/D98H/E176V/E277Q/G131W/G231S/I119V/I121R/I166T/I218V/L300P/L318F/N151K/N90K/P208A/P217A/Q86G/Q94H/R138H/R169H/T345S). In words: MHC binding assay, UV-ligand exchange with beta2m ELISA (exchange yield), HLA-A*02. To be noted: binding to HLA-A*02 ranged by peptide exchange yield. The text has this: Candidate peptides for T cell based therapies according to the present invention were further tested for their MHC binding capacity (affinity). The individual peptide-MHC complexes were produced by UV-ligand exchange, where a UV-sensitive peptide is cleaved upon UV-irradiation, and exchanged with the peptide of interest as analyzed. Only peptide candidates that can effectively bind and stabilize the peptide-receptive MHC molecules prevent dissociation of the MHC complexes. To determine the yield of the exchange reaction, an ELISA was performed based on the detection of the light chain (β2m) of stabilized MHC complexes. The assay was performed as generally described in Rodenko et al. (Rodenko et al., 2006).
96 well MAXISorp plates (NUNC) were coated over night with 2 ug/ml streptavidin in PBS at room temperature, washed 4× and blocked for 1 h at 37° C. in 2% BSA containing blocking buffer. […] Peptide-MHC monomers of the UV-exchange reaction were diluted 100 fold in blocking buffer. Samples were incubated for 1 h at 37° C., washed four times, incubated with 2 ug/ml HRP conjugated anti-β2m for 1h at 37° C., washed again and detected with TMB solution that is stopped with […]. Absorption was measured at 450 nm. Candidate peptides that show a high exchange yield (preferably higher than 50%, most preferred higher than 75%) are generally preferred for a generation and production of antibodies or fragments thereof, and/or T cell receptors or fragments thereof, as they show sufficient avidity to the MHC molecules and prevent dissociation of the MHC complexes.

Turning to “115 (RYLNKSFVL; listed as Homo sapiens) [compound 115]”, the “Peptide exchange (MHC class I binding score, peptide exchange yield)” value in the experiment with HLA-A*24 is reported as “+++ (50%-75% = +++)”. In addition, the “in vitro immunogenicity, Wells positive [%]” value (“in vitro immunogenicity … [%]” below) in the experiment with CD8+ T cells is on record as “+ (<20% = +)”. Taken in the same sequence, the figures for “179 (TYIPVGLGRLL; listed as Homo sapiens) [compound 179]” were “+++ (50%-75% = +++)” and “+++ (50%-69% = +++)”. The matching figures for “144 (VFASLPGFLF; listed as Homo sapiens) [compound 144]”: “++++ (>=75% = ++++)” and “++ (20%-49% = ++)”. With “109 (LFITGGQFF; listed as Homo sapiens) [compound 109]”, in the experiment with HLA-A*24, the “Peptide exchange (MHC class I binding score, peptide exchange yield)” value is given as “++++ (>=75% = ++++)”. Moreover, the “in vitro immunogenicity … [%]” value in the experiment on CD8+ T cells was “++ (20%-49% = ++)”. Taken in the same sequence, the figures for “107 (KYFPYLVVI; listed as Homo sapiens) [compound 107]” were “+++ (50%-75% = +++)” and “++ (20%-49% = ++)”. The matching figures for “157 (DYIPASGFALF; listed as Homo sapiens) [compound 157]”: “+++ (50%-75% = +++)” and “+ (<20% = +)”. “345 (EYNSDLHQFF; listed as Homo sapiens) [compound 345]”: the “Peptide exchange (MHC class I binding score, peptide exchange yield)” value in the experiment on HLA-A*24 is given as “+++ (50%-75% = +++)”. In addition, the “in vitro immunogenicity … [%]” value in the experiment with CD8+ T cells is “++ (20%-49% = ++)”. The matching figures for “366 (QYLELAHSL; listed as Homo sapiens) [compound 366]”: “+++ (50%-75% = +++)” and “++ (20%-49% = ++)”.

For the substance “156 (YYMELTKLLL; listed as Homo sapiens) [compound 156]”, the “Peptide exchange (MHC class I binding score, peptide exchange yield)” value in the experiment with HLA-A*24 was “++++ (>=75% = ++++)”. In the experiment with CD8+ T cells, the “in vitro immunogenicity … [%]” value was “+ (<20% = +)”. Taken in the same sequence, the figures for “120 (GYIEHFSLW; listed as Homo sapiens) [compound 120]” were “++++ (>=75% = ++++)” and “++ (20%-49% = ++)”. Taken in the same sequence, the figures for “160 (RYGDGGSSF; listed as Homo sapiens) [compound 160]” were “+++ (50%-75% = +++)” and “+ (<20% = +)”. The matching figures for “172 (VFIFKGNEF; listed as Homo sapiens) [compound 172]”: “++++ (>=75% = ++++)” and “+ (<20% = +)”. As to “167 (RYGFYYVEF; listed as Homo sapiens) [compound 167]”, the “Peptide exchange (MHC class I binding score, peptide exchange yield)” value with HLA-A*24 is given as “+++ (50%-75% = +++)”. The “in vitro immunogenicity … [%]” value in the experiment on CD8+ T cells is “++++ (>=70% = ++++)”. The matching figures for “104 (SYLTWHQQI; listed as Homo sapiens) [compound 104]”: “++++ (>=75% = ++++)” and “+ (<20% = +)”. With “99 (QYILAVPVL; listed as Homo sapiens) [compound 99]”, the “Peptide exchange (MHC class I binding score, peptide exchange yield)” value in the experiment with HLA-A*24 is recorded as “++++ (>=75% = ++++)”. For the same substance, the “in vitro immunogenicity … [%]” value in the experiment with CD8+ T cells is given as “+++ (50%-69% = +++)”. The matching figures for “360 (VFSPDGHLF; listed as Homo sapiens) [compound 360]”: “+++ (50%-75% = +++)” and “++ (20%-49% = ++)”. The matching figures for “351 (IFHEVPLKF; listed as Homo sapiens) [compound 351]”: “+++ (50%-75% = +++)” and “++ (20%-49% = ++)”. Taken in the same sequence, the figures for “163 (RYLTISNLQF; listed as Homo sapiens) [compound 163]” were “++++ (>=75% = ++++)” and “+ (<20% = +)”.

Turning to “399 (SYIDVLPEF; listed as Homo sapiens) [compound 399]”, the “in vitro immunogenicity, wells” value in the experiment on CD8+ T cells was “++ (20%-49% = ++)”. In the case of “356 (NYMPGQLTI; listed as Homo sapiens) [compound 356]”, the “Peptide exchange (MHC class I binding score, peptide exchange yield)” value in the experiment on HLA-A*24 is given as “++++ (>=75% = ++++)”. For the same substance, the “in vitro immunogenicity … [%]” value with CD8+ T cells is given as “+ (<20% = +)”. The matching figures for “349 (QYSIISNVF; listed as Homo sapiens) [compound 349]”: “+++ (50%-75% = +++)” and “++ (20%-49% = ++)”. “110 (SYPKIIEEF; listed as Homo sapiens) [compound 110]”: in the experiment with HLA-A*24, the “Peptide exchange (MHC class I binding score, peptide exchange yield)” value is reported as “+++ (50%-75% = +++)”. Further, in the experiment on CD8+ T cells, the “in vitro immunogenicity … [%]” value is “++ (20%-49% = ++)”. Regarding “139 (IFGIFPNQF; listed as Homo sapiens) [compound 139]”, in the experiment with HLA-A*24, the “Peptide exchange (MHC class I binding score, peptide exchange yield)” value is reported as “+++ (50%-75% = +++)”. Moreover, the “in vitro immunogenicity … [%]” value in the experiment on CD8+ T cells is recorded as “++ (20%-49% = ++)”.

Turning to “414 (MYPYIYHVL; listed as Homo sapiens) [compound 414]”, in the experiment with CD8+ T cells, the “in vitro immunogenicity, wells” value is recorded as “++ (20%-49% = ++)”.

In the case of “393 (KYIEAIQWI; listed as Homo sapiens) [compound 393]”, the “in vitro immunogenicity, wells” value in the experiment on CD8+ T cells is “++ (20%-49% = ++)”. As for “407 (VYGIRLEHF; listed as Homo sapiens) [compound 407]”, the “in vitro immunogenicity, wells” value with CD8+ T cells is reported as “+++ (50%-69% = +++)”. The same measure, in the same setting: under “400 (KYLEKYYNL; listed as Homo sapiens) [compound 400]” stands “++ (20%-49% = ++)”.

On to “51 (LLLDGDFTL; listed as Homo sapiens) [compound 51]”, for which the “Peptide exchange (MHC class I binding score)” value with HLA-A*02:01 is “+++ (50%-75% = +++)”. The same measure, in the same setting: under “4 (ELAEIVFKV; listed as Homo sapiens) [compound 4]” stands “+++ (50%-75% = +++)”. The same measure, in the same setting: the result for “55 (IASAIVNEL; listed as Homo sapiens) [compound 55]” reads “++ (20%-49% = ++)”; that for “20 (ALDGHLYAI; listed as Homo sapiens) [compound 20]”, “+++ (50%-75% = +++)”. In the case of “5 (SLFGQEVYC; listed as Homo sapiens) [compound 5]”, the “Peptide exchange (MHC class I binding score)” value with HLA-A*02:01 is “+++ (50%-75% = +++)”.
